Measurements from ChEMBL document CHEMBL1201862, “PubChem BioAssay data set” (2004).
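Briefly, cells in 96-well plates were exposed to five compound concentrations for 48 h, and endpoints were estimated by linear interpolation. GI50 is the concentration that inhibits growth by half.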 The source made the active and inactive calls. No stated cut-off is given here; in the data, active = GI50 up to about 1.1 µM and inactive = higher.

Tests used:
Assay in all cases: NCI tumour cell line growth inhibition, 48 h
[1] = test system: 786-0
[2] = test system: BT-549
[3] = test system: CCRF-CEM
[4] = test system: COLO 205
[5] = test system: EKVX
[6] = test system: HCC 2998
[7] = test system: HT-29
[8] = test system: K562
[9] = test system: KM12
[10] = test system: MCF7
[11] = test system: NCI-H23
[12] = test system: OVCAR-3
[13] = test system: SF-268
[14] = test system: SK-MEL-28
[15] = test system: SK-MEL-2
[16] = test system: SK-MEL-5
[17] = test system: SR
[18] = test system: SW-620
[19] = test system: U-251
[20] = test system: UACC-257

Measured: GI50

CSC1=NS(=O)(=O)c2cc(C(=O)NN(C)C(=O)c3cc4c(cc3Cl)SC(SC)=NS4(=O)=O)c(Cl)cc2S1
inactive: [1] > 10 µM | [2] > 10 µM | [3] > 10 µM | [4] > 10 µM | [5] > 10 µM | [6] > 10 µM | [7] > 10 µM | [8] > 10 µM | [9] > 10 µM | [10] 9.75 µM | [11] > 10 µM | [12] > 10 µM | [13] > 10 µM | [14] > 10 µM | [15] > 10 µM | [16] > 10 µM | [17] > 10 µM | [18] > 10 µM | [19] > 10 µM | [20] > 10 µM

N=C(N)SCc1ccc(Cl)cc1Cl.O=[N+]([O-])c1c(O)c(Cl)cc(Cl)c1Cl
inactive: [1] 11.7 µM | [2] 16.3 µM | [3] 3.18 µM | [4] 14.2 µM | [5] 15.3 µM | [6] 8.18 µM | [7] 11 µM | [8] 4.35 µM | [9] 13.7 µM | [10] 11.5 µM | [11] 13.4 µM | [12] 13.1 µM | [13] 17 µM | [14] 28.9 µM | [15] 12.7 µM | [16] 15.3 µM | [17] 5.21 µM | [18] 15.2 µM | [19] 14.8 µM | [20] 7.73 µM

O=C(O)c1ccc(NNC(=O)c2cccc3c(=O)c4ccccc4[nH]c23)cc1
inactive: [1] > 100 µM | [2] 85.7 µM | [3] 66.2 µM | [4] > 100 µM | [5] 57.9 µM | [6] > 100 µM | [7] > 100 µM | [8] 58.6 µM | [9] > 100 µM | [10] > 100 µM | [11] > 100 µM | [12] > 100 µM | [13] > 100 µM | [14] > 100 µM | [15] > 100 µM | [16] 55.5 µM | [17] 93.5 µM | [18] > 100 µM | [19] 80.7 µM | [20] > 100 µM

CC(=O)N[C@@H](Cc1ccc(O)cn1)C(=O)NC1CCCCC1
inactive: [1] > 100 µM | [2] > 100 µM | [3] > 100 µM | [4] > 100 µM | [5] > 100 µM | [6] > 100 µM | [7] > 100 µM | [8] > 100 µM | [9] > 100 µM | [10] > 100 µM | [11] > 100 µM | [12] > 100 µM | [13] > 100 µM | [14] > 100 µM | [15] > 100 µM | [16] > 100 µM | [17] > 100 µM | [18] > 100 µM | [19] > 100 µM | [20] > 100 µM

O=c1[nH]c2ccsc2c(=O)n1COCc1ccccc1
inactive: [1] > 100 µM | [2] > 100 µM | [3] > 100 µM | [4] > 100 µM | [5] > 100 µM | [6] > 100 µM | [7] > 100 µM | [8] > 100 µM | [9] > 100 µM | [10] > 100 µM | [11] > 100 µM | [12] > 100 µM | [13] > 100 µM | [14] > 100 µM | [15] > 100 µM | [16] > 100 µM | [17] > 100 µM | [18] > 100 µM | [19] > 100 µM | [20] > 100 µM

O=C1CCCCC(=O)OC2(CCCCC2=O)CC1 (stereo not drawn)
inactive: [1] > 100 µM | [2] > 100 µM | [3] > 100 µM | [4] > 100 µM | [6] > 100 µM | [7] > 100 µM | [8] > 100 µM | [9] > 100 µM | [10] > 100 µM | [11] > 100 µM | [12] > 100 µM | [13] > 100 µM | [14] > 100 µM | [15] > 100 µM | [16] > 100 µM | [17] > 100 µM | [18] > 100 µM | [19] > 100 µM | [20] > 100 µM

C=CCN1C(=O)CC(=O)N(NC2=NNC3(C(=O)N2)c2ccccc2-c2ccccc23)C1=S
inactive: [1] 38.5 µM | [2] 45 µM | [3] 34 µM | [4] 21.7 µM | [5] 29.4 µM | [6] 38.6 µM | [7] 37.9 µM | [8] 31.5 µM | [10] 25.8 µM | [11] 29.2 µM | [12] 28.4 µM | [13] 51.3 µM | [14] 49.9 µM | [15] 25.2 µM | [16] 31.4 µM | [17] 15.6 µM | [18] 38.5 µM | [19] 38 µM | [20] 27.5 µM
